From ChEMBL document CHEMBL1153850, “Novel derivatives of 6-mercaptopurine: synthesis, characterization and antiproliferative activities of S-allylthio-mercaptopurines” (Eur J Med Chem, 2009)
The source made the active and inactive calls. The rule behind the calls is not given here.

Experiments:
MOLT-4 = experiment: Antiproliferative activity against human MOLT4 cells assessed as [methyl-3H]thymidine incorporation after 16 hrs by XTT assay; format: functional, cell-based; conditions: MOLT-4, 16 h
HL-60 [1] = experiment: Antiproliferative activity against human HL60 cells assessed as cell viability after 16 hrs by [methyl-3H]thymidine incorporation based XTT assay relative to control; format: functional
NCI-N87 [2] = experiment: Antiproliferative activity against human NCI-N87 cells at 150 uM after 16 hrs by XTT assay; format: functional
U-937 = experiment: Antiproliferative activity against human U937 cells assessed as [methyl-3H]thymidine incorporation after 16 hrs by XTT assay; format: functional, cell-based; conditions: U-937, 16 h
HeLa [3] = experiment: Antiproliferative activity against human HeLa cells assessed as cell viability after 16 hrs by [methyl-3H]thymidine incorporation based XTT assay relative to control; format: functional
Jurkat = experiment: Antiproliferative activity against human Jurkat cells assessed as [methyl-3H]thymidine incorporation after 16 hrs by XTT assay; format: functional, cell-based
NCI-N87 [4] = experiment: Antiproliferative activity against human NCI-N87 cells assessed as residual proliferation at 50 uM after 16 hrs by XTT assay; format: functional
HL-60 [5] = experiment: Antiproliferative activity against human HL60 cells assessed as [methyl-3H]thymidine incorporation after 16 hrs by XTT assay; format: functional, cell-based; conditions: HL-60, 16 h
NCI-N87 [6] = experiment: Antiproliferative activity against human NCI-N87 cells assessed as [methyl-3H]thymidine incorporation after 16 hrs by XTT assay; format: functional, cell-based; conditions: for IC50: NCI-N87, 16 h
HeLa [7] = experiment: Antiproliferative activity against human HeLa cells assessed as [methyl-3H]thymidine incorporation after 16 hrs by XTT assay; format: functional, cell-based
Daudi [8] = experiment: Antiproliferative activity against human Daudi cells assessed as residual proliferation at 50 uM after 16 hrs by XTT assay; format: functional
Daudi [9] = experiment: Antiproliferative activity against human Daudi cells assessed as [methyl-3H]thymidine incorporation after 16 hrs by XTT assay; format: functional, cell-based
Daudi [10] = experiment: Antiproliferative activity against human Daudi cells assessed as residual proliferation at 100 uM after 16 hrs by XTT assay; format: functional
NCI-N87 [11] = experiment: Antiproliferative activity against human NCI-N87 cells assessed as residual proliferation at 100 uM after 16 hrs by XTT assay; format: functional
HT-29 [12] = experiment: Antiproliferative activity against multidrug-resistant human HT-29 cells assessed as [methyl-3H]thymidine incorporation after 16 hrs by XTT assay; format: functional, cell-based; conditions: HT-29, 16 h
NCI-N87 [13] = experiment: Antiproliferative activity against human NCI-N87 at 100 uM assessed as [methyl-3H]thymidine incorporation after 16 hrs by XTT assay relative to control; format: functional, cell-based
Daudi [14] = experiment: Antiproliferative activity against human Daudi cells at <=20 uM assessed as [methyl-3H]thymidine incorporation after 16 hrs by XTT assay relative to control; format: functional
[15] = Induction of apoptosis in human B-CLL cells assessed as increase in apoptotic cells at 150 uM after 16 hrs by FACS analysis; format: functional
HeLa [16] = experiment: Cytotoxicity against human HeLa cells assessed as reduced cell viability at 200 uM by trypan blue exclusion assay relative to control; format: functional
[17] = Induction of apoptosis in human B-CLL cells assessed as increase in apoptotic cells at 50 uM after 16 hrs by FACS analysis; format: functional
PBMC = experiment: Inhibition of T cell mitogen-induced blastogenesis in human PBMC after 4 days; format: functional, cell-based; conditions: 96 h
HT-29 [18] = experiment: Cytotoxicity against multidrug-resistant human HT-29 cells assessed as inhibition of epithelial-like growth at 150 uM after 16 hrs using propidium iodide staining by phase-contrast microscopy; format: functional, cell-based
[19] = Antiproliferative activity against human B-CLL cells assessed as cell viability after 16 hrs by trypan blue exclusion assay; format: functional, cell-based
[20] = Induction of apoptosis in human B-CLL cells assessed as increase in apoptotic cells at 100 uM after 16 hrs by FACS analysis; format: functional
HeLa [21] = experiment: Antiproliferative activity against human HeLa cells at 110 uM assessed as [methyl-3H]thymidine incorporation after 16 hrs by XTT assay relative to control; format: functional, cell-based
[22] = Induction of apoptosis in human B-CLL cells after 48 hrs by FACS analysis; format: functional, cell-based
HeLa [23] = experiment: Cytotoxicity against human HeLa cells assessed as reduced cell viability at 150 uM by trypan blue exclusion assay relative to control; format: functional
Daudi [24] = experiment: Cytotoxicity against human Daudi cells assessed as residual cell viability at 50 uM after 16 hrs by trypan blue exclusion assay relative to control; format: functional
HT-29 [25] = experiment: Cytotoxicity against multidrug-resistant human HT-29 cells assessed as reduced cell viability at 150 uM by trypan blue exclusion assay relative to control; format: functional
[26] = Cytotoxicity against human B-CLL cells assessed as residual cell viability at 150 uM after 16 hrs by trypan blue exclusion assay relative to control; format: functional
Daudi [27] = experiment: Antiproliferative activity against human Daudi cells at 50 uM after 16 hrs by XTT assay; format: functional
HT-29 [28] = experiment: Induction of multidrug-resistant human HT-29 cell death at 150 uM after 16 hrs using propidium iodide staining by fluorescence microscopy; format: functional, cell-based

| SMILES | IC50 (MOLT-4) [µM] | IC50 (U-937) [µM] | IC50 (Jurkat) [µM] | IC50 (HL-60 [5]) [µM] | IC50 (HeLa [7]) [µM] | IC50 (Daudi [9]) [µM] | IC50 (HT-29 [12]) [µM] | Activity (NCI-N87 [2]) | Activity (NCI-N87 [4]) [%] | IC50 (NCI-N87 [6]) [µM] | Activity (NCI-N87 [13]) | Activity (Daudi [14]) | Activity (NCI-N87 [6]) | Activity (HeLa [7]) | Activity [17] [%] | Activity (Daudi [9]) | IC50 (PBMC) [µM] | Activity (HT-29 [18]) | Activity [20] [%] | Activity (HeLa [21]) | other results |
| --- | --- | --- | --- | --- | --- | --- | --- | --- | --- | --- | --- | --- | --- | --- | --- | --- | --- | --- | --- | --- | --- |
| C=CCSSc1ncnc2c1ncn2[C@H]1O[C@@H](CO)[C@H](O)[C@@H]1O | 16.9 | 113 | 69.1 | 86.1 | > 200 | 70.8 | > 200 | Active | 70 | 120 | – | – | – | – | – | – | – | – | – | – | Activity (Daudi [8]): 60%; Activity (Daudi [10]): 25%; Activity (NCI-N87 [11]): 55% |
| Sc1ncnc2nc[nH]c12 [MERCAPTOPURINE ANHYDROUS] | 50.5 | > 200 | > 200 | – | > 200 | > 200 | > 200 | 80% | – | – | inactive | inactive | Dose-dependent effect | Dose-dependent effect | 9.78 | Dose-dependent effect | 0.149 | inactive | 9.7 | inactive | Activity [15]: 8.68%; Activity (HeLa [16]): 75%; IC50 [19]: > 200 µM |
| C=CCS[S+]([O-])CC=C (stereo not drawn) [ALLICIN] | – | 19.7 | – | 5.5 | – | 35.3 | 83.8 | – | – | 16.8 | – | – | – | – | – | – | – | – | – | – | IC50 [22]: 20 µM |
| Cn1cnc([N+](=O)[O-])c1Sc1ncnc2[nH]cnc12 [AZATHIOPRINE] | – | – | – | – | – | – | – | – | – | – | – | – | – | – | – | – | 0.23 | – | – | – | – |

More lines, main results first:

| IC50 (MOLT-4) [µM] | IC50 (U-937) [µM] | IC50 (Jurkat) [µM] | IC50 (HL-60 [5]) [µM] | IC50 (HeLa [7]) [µM] | IC50 (Daudi [9]) [µM] | IC50 (HT-29 [12]) [µM] | SMILES | Activity (NCI-N87 [2]) | Activity (NCI-N87 [4]) [%] | IC50 (NCI-N87 [6]) [µM] | Activity (NCI-N87 [13]) | Activity (Daudi [14]) | Activity (NCI-N87 [6]) | Activity (HeLa [7]) | Activity [17] [%] | Activity (Daudi [9]) | IC50 (PBMC) [µM] | Activity (HT-29 [18]) | Activity [20] [%] | Activity (HeLa [21]) | other results |
| --- | --- | --- | --- | --- | --- | --- | --- | --- | --- | --- | --- | --- | --- | --- | --- | --- | --- | --- | --- | --- | --- |
| 24.8 | > 200 | 99 | – | – | – | – | OC[C@@H]1O[C@H](n2cnc3c(S)ncnc32)[C@@H](O)[C@H]1O | 75% | – | – | – | – | – | – | – | – | – | – | – | – | Activity (HL-60 [1]): inactive; Activity (HeLa [3]): inactive |
| 8.9 | 46.7 | 54.7 | 42 | – | 38.3 | – | C=CCSSc1ncnc2nc[nH]c12 | – | 50 | 70.5 | Active | 50% | Dose-dependent effect | Dose-dependent effect | 37.88 | Dose-dependent effect | – | Active | 95.26 | Active | Activity (HeLa [23]): 65%; Activity (Daudi [24]): 20%; Activity (HT-29 [25]): 40%; Activity [26]: 75%; Activity (Daudi [27]): 15%; Activity (HT-29 [28]): Active |
